Measured values published in article PMC2915928 (Bioorganic & medicinal chemistry, 2009).
Like-named read-outs stand apart in the source and are kept apart here.

Key:
[1] = human liver microsomes
[2] = molecular target: T1, nociceptin (NOP) receptor (Homo sapiens, UniProt P41146); experiment: biochemical; conditions: read-out: NOP Emax, stimulation of [35S]GTPγS binding
μ-opioid receptor [3] = molecular target: T2, μ-opioid receptor (Mus musculus, UniProt P42866); experiment: biochemical; conditions: read-out: μ Emax, stimulation of [35S]GTPγS binding
T2 sequence (P42866 whole entry): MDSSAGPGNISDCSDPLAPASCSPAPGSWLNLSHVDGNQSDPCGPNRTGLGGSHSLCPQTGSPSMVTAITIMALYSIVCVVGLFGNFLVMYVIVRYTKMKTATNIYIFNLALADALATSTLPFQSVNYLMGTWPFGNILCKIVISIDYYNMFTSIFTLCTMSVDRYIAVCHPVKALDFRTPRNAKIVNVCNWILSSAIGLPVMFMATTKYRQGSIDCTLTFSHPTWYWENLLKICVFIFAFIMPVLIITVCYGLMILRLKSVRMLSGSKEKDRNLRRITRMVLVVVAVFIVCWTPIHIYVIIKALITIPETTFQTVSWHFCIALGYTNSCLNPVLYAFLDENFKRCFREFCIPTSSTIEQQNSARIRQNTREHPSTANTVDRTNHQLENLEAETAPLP

μ-opioid receptor [4] = molecular target: T2, μ-opioid receptor; experiment: biochemical; conditions: read-out: μ Emax, inhibition of basal [35S]GTPγS binding
μ-opioid receptor [5] = molecular target: T2, μ-opioid receptor
[6] = molecular target: T1, nociceptin (NOP) receptor; experiment: Inhibition of basal [35S]GTPγS binding; format: biochemical; conditions: read-out: NOP Emax, inhibition of basal [35S]GTPγS binding

T1 sequence (P41146 whole entry): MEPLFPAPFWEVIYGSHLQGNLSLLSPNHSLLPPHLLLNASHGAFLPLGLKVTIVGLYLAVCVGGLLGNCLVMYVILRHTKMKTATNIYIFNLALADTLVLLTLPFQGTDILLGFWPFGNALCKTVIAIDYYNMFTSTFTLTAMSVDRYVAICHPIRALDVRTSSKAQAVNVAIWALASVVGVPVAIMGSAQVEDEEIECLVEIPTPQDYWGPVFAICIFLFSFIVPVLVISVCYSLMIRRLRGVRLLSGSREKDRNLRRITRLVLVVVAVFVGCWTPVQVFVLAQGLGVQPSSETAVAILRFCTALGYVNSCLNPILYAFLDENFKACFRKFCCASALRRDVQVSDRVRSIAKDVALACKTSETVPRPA

Q: For `O=C(N[C@@H]1CC[C@@]2(O)[C@H]3Cc4ccc(O)c5c4[C@@]2(CCN3CC2CC2)[C@H]1O5)c1ccc(Br)cc1.O=C(O)C(=O)O` [Compound 6, 17-Cyclopropylmethyl-3,14β-dihydroxy-4,5α-epoxy-6β-[(4′-bromo)benzamido] morphinan], which “Change of N-oxide formation rate upon going from pH 7.4 to pH 10” value [1] is on record?
A: The value was “doubled”.

Q: Which Emax [2] does the source give for `O=C(N[C@@H]1CC[C@@]2(O)[C@H]3Cc4ccc(O)c5c4[C@@]2(CCN3CC2CC2)[C@H]1O5)c1ccc(Cl)c(Cl)c1.O=C(O)C(=O)O` [Compound 9] here?
A: The Emax was 0%.

Q: What about the Emax (μ-opioid receptor [3]) of the same molecule?
A: The Emax was 80 to 85%.

Q: What about the Emax (μ-opioid receptor [4]) of the same molecule?
A: Its Emax is 0%.

Q: And the “μ Emax, stimulation of [35S]GTPγS binding” value (μ-opioid receptor [5])?
A: Its value is 85 ± 7.4%.

Q: And the Emax [6]?
A: The Emax was 87 ± 6.9%.
